From PMC5674032, “New Insights into PI3K Inhibitor Design using X-ray Structures of PI3Kα Complexed with a Potent Lead Compound” (Scientific Reports, 2017) come the findings set out here.

For the assay, the target named is T1, PI3Kα (p110α) (Homo sapiens, UniProt P42336).
T1 construct: gene PIK3CA; N-6*His tag-TEV site-p85α (318–615) - GSPGISGGGGG-full length p110α fusion protein; with p85α (318–615), PIK3R1
Nature of the assay: X-ray co-crystal structure (apo crystals soaked); IC50 from PI3K HTRF assay on purified enzyme. Type of assay: biochemical. An excerpt:
X-ray co-crystal structure (apo crystals soaked); IC50 from PI3K HTRF assay on purified enzyme on PI3Kα (p110α) | The crystal structure of PI3Kα–YXY-4F verified that the compound YXY-4F bound to the ATP-binding pocket

T1 sequence (P42336 whole entry, the tested form may be a part): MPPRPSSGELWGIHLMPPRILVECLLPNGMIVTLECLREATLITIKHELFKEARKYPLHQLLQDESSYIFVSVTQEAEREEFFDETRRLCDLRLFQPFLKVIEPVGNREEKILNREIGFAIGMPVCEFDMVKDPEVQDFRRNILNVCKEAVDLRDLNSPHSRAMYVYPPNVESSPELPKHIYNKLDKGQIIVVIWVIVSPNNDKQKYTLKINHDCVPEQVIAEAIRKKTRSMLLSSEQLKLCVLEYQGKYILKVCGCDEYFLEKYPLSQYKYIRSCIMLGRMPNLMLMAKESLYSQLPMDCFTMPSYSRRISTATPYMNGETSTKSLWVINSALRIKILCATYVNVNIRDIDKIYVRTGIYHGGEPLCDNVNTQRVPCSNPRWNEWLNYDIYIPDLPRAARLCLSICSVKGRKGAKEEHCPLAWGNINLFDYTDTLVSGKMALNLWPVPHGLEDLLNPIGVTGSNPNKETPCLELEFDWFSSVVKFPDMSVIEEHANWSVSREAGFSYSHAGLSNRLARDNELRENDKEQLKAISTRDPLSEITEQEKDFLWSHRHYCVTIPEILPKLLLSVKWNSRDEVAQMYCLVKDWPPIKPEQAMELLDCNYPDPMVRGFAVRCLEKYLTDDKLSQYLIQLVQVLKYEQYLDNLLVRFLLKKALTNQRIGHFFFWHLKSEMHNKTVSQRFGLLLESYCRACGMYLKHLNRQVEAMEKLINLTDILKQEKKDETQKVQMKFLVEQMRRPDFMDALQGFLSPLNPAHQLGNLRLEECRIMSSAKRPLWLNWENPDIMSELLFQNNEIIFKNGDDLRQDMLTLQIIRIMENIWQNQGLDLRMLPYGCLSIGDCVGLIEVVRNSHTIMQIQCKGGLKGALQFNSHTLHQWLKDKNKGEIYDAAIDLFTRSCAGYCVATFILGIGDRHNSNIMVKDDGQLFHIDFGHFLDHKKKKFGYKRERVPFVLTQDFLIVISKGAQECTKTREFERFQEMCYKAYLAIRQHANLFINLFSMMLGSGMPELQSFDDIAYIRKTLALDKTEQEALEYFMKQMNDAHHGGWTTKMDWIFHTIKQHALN
T1 sequence (P27986 318-615 partner): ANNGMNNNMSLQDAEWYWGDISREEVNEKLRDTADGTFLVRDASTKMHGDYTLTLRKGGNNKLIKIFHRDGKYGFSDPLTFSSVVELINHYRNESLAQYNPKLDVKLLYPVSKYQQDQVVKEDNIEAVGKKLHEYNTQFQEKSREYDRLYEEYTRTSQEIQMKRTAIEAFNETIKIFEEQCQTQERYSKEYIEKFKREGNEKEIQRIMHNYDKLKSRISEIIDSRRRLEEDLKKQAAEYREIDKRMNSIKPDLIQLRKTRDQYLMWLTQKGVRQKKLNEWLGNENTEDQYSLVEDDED

`Oc1cc(NCc2ccc(F)cc2)cc(-c2nc(N3CCOCC3)c3sccc3n2)c1` [YXY-4F] displayed an IC50 of 1.02 ± 0.005 µM.

As a reminder, the IC50 is the concentration at which inhibition is half-maximal. A lower IC50 goes with inhibition by little substance.
